In data set [1] the target is T1, DYRK1A catalytic domain (DYRK1A-ΔC) (Rattus norvegicus, UniProt Q63470).
T1 construct: The cDNA coding for the catalytic domain (residues 1-502) of rat DYRK1A; 6xHis; made in house; host or cells: E. coli BL21(DE3), pET28
As to the kind of experiment: In vitro DYRK1A kinase inhibition, UFLC assay with fluorescent peptide substrate. In kind it is biochemical. Particulars: IC50, in vitro inhibition of DYRK1A, 3,5-diaryl-7-azaindoles 5a-5g, Fig. 5.

Data set [2] concerns KB cells. The experiment in a line: KB cell proliferation / cytotoxicity (CellTiter-Blue). In kind it is cell-based. The note with it: Homo sapiens, KB, 72 h, 72 h. On the procedure:
Cancer cell lines were obtained from the American Type Culture Collection (Rockville, MD, USA) and were cultured according to the supplier’s instructions. Briefly, human KB epidermal carcinoma cells were grown in Dulbecco minimal essential medium (DMEM) containing 4.5 g/L glucose supplemented with 10% fetal calf serum (FCS) and 1% glutamine, 100 UI penicillin, 100 µg/mL streptomycin and 1.5 µg/mL fungizone and maintained at 37 °C in a humidified atmosphere containing 5% CO2. Cell viability was assessed using Promega CellTiter-Blue TM reagent according to the manufacturer’s instructions. Cells were seeded in 96-well plates (5 × 10^3 cells/well) containing […]. After 24 h of culture, the cells were supplemented with […] of the studied compound dissolved in DMSO (less than 0.1% in each preparation). After 72 h of incubation, […] of resazurin was added for 2 h before recording fluorescence (λex = 560 nm, λem = 590 nm) using a Victor microtiter plate fluorimeter (Perkin-Elmer, USA).

Data set [3] can be described thus: Bioavailability in plasma after i.p. injection (UHPLC-MS/MS). In kind it is in vivo. The note with it: mouse, ip, WT mice, 20 mg/kg i.p. On the procedure:
Before undertaking behavioral studies in Ts65Dn mice, the bioavailability of F-DANDY 5a in plasma after peripheral (intraperitoneal – i.p.) injection in mice was determined. […] The sample preparation and analytical protocol were adapted from Bonneau et al.[38],[39]. […] A 30 min interval was thus selected between time of injection and behavioral assessment.
All plasma and brain homogenate extracts were analyzed by an ultra-high performance liquid chromatography (UHPLC) system coupled to a triple-quadrupole mass spectrometer (Dionex Ultimate 3000 RSLC system coupled to a TSQ Vantage EMR, Thermo Scientific, Les Ulis, France). UHPLC separation was performed using a C18 column (HSS T3, 2.1 mm × 150 mm, 1.7 μm, Waters, Guyancourt, France) equipped with a guard column (HSS T3, 2.1 mm × 5 mm, 1.7 μm, Waters, Guyancourt, France) and maintained at 40 °C. The mobile phases were water, 0.1% formic acid (A) and acetonitrile (B). […] A washing step in acetonitrile/isopropanol was added to limit carryover problems. Injection volume was 4 µL and the autosampler was maintained at 6 °C. Ionization was performed with a heated electrospray ionization source in positive mode. The source parameters were set as follows: spray voltage 3350 V, vaporizer temperature 250 °C, sheath gas (N2) pressure 55 psi, auxiliary gas pressure (N2) 25 psi, capillary temperature 350 °C. Analysis was performed under the Selected Reaction Monitoring (SRM) mode using several transitions for each compound at optimized collision energies (see Table SI2 and Figure SI1). […] Data acquisition was performed using ThermoScientific Xcalibur 2.1 software system. All samples were analyzed in triplicate.
Two compounds, V[34] […] Limit of quantification (LOQ) was determined as the lowest point of the calibration curve at 1.6 pg/μL. […] Limit of quantification (LOQ) was determined as the lowest point of the calibration curve at 1.6 pg/mg. […]
Using an optimized Ultra Performance Liquid Chromatography with tandem mass spectrometry (UPLC-MS/MS), compound 5a was subsequently quantified in plasma. […] All samples were analyzed in triplicate.

Consider `Oc1ccc(-c2cnc3[nH]cc(-c4ccc(F)cc4)c3c2)cc1O` [Compound 5a, 3-(4-fluorophenyl)-5-(3,4-dihydroxyphenyl)-1H-pyrrolo[2,3-b]pyridine], for which the IC50 in data set [1] amounted to 20.7 nM. For the same compound, the inhibition at 10 µM in data set [2] (10^−5 M, read-out: % Growth inhibition 10^−5 M) was below 50%. The inhibition at 1 µM in data set [2] (10^−6 M, read-out: % Growth inhibition 10^−6 M) was determined as 0%. Besides, the concentration at 2.5 h in data set [3] (after slow decrease over 2.5 hours, read-out: plasma level) is around 50 ng/mL. The same compound registered a concentration at 4.4 min in data set [3] (t = 4.4 min) of 312 ng/mL. The concentration at 5.4 min in data set [3] (t = 5.4 min) came to 236 ng/mL.

The term IC50 denotes the concentration that gives 50% inhibition. Low values mean greater potency in that assay, high ones weaker potency in that assay. The inhibition is how much of the control response was suppressed.

For the origin of these results see publication PMC5809559, “DYRK1A inhibition and cognitive rescue in a Down syndrome mouse model are induced by new fluoro-DANDY derivatives” (Scientific Reports, 2018).
